Laboratory results published in patent US5519057A, “Ibuprofen-containing medicament” (priority 1986, dated 1996).

Legend:
[1] = test system: afferent nerves of the feet of female Rhesus monkeys; assay: Analgesia test: threshold voltage for stimulus response on electrical stimulation of the feet of female Rhesus monkeys; format: in vivo, Rhesus monkeys (macaca mulatta); conditions: for Median percentage change in the threshold voltage: ibuprofen forms 50 mg/kg, acetylsalicylic acid 100 mg/kg; for analgetic effect (in words) / change in the threshold voltage (in words) / increase of the threshold voltage / time to achieve the increase of threshold voltage: 50 mg/kg ibuprofen form
Protocol: In this test the afferent nerves of the feet of female Rhesus monkeys were electrically stimulated. For the test four adult female Rhesus monkeys (macaca mulatta) were used.
The monkeys were trained in such a way that they sat in chairs wearing an aluminium foil shoe during the test.
On the days when the test was carried out the monkeys were sat in these stools. One foot of each monkey was smeared with electrode gel and the aluminium shoe was fitted over it.
A Grass-stimulator (S 88) was connected to the monkeys via a multiple-way switch (the positive lead was connected to the aluminium shoe, the negative lead to the chair). An electrical stimulation, each time of 2 seconds duration with a frequency of 60 Hz was applied (the magnitude of stimulation was altered by adjusting the voltage supplied to the stimulator; the corresponding current was measured by means of an ammeter connected in series).
The stimulus required to achieve a stimulus threshold was determined. For this purpose the voltage was raised stepwise. The threshold voltage was taken as the lowest voltage at which bending of the toes or twisting of the foot occurred.
Before application of the medicament the animals were allowed to acclimatize for at least one hour. During this period the threshold voltage was determined at 10 minute intervals until steady readings were obtained.
Following the acclimatization period the carrier material or the active ingredient were orally administered. The threshold voltage required to effect a stimulus response in the foot of each monkey was determined at 30 minute intervals for 3 hours and then after 4 and 5 hours after administration of the active ingredient.
The observer and the stimulation apparatus were concealed behind a one-way mirror.
Between the individual tests there was an interval of at least one week.
The active ingredients 1 to 4 were prepared for oral administration by suspending them in 1.0% w/v Tragacanth. The medicaments were prepared directly before use and administered in a dose of 4 ml/kg.

[2] = metabolites excreted in the urine; cited from earlier work
[3] = human, oral
humans [4] = assay: Analgetic activity in humans; format: in vivo; conditions: no data given
humans [5] = conditions: cited from earlier work
prostaglandin synthesis = conditions: animals with inflammation; cited from earlier work
[6] = 0,5 h after oral administration
[7] = 1,0 h after oral administration, *P < 0,05 vs carrier (Mann-Whitney U) over (+)-S-Ibuprofen and acetylsalicylic acid
[8] = 1,5 h after oral administration, *P < 0,05 vs carrier (Mann-Whitney U) over (+)-S-Ibuprofen
[9] = 2,0 h after oral administration
[10] = 2,5 h after oral administration
[11] = 3,0 h after oral administration
[12] = 4,0 h after oral administration
[13] = 5,0 h after oral administration
[14] = oral, 100 mg/kg acetylsalicylic acid

| SMILES | Median percentage change in the threshold voltage [1, 6] | Median percentage change in the threshold voltage [1, 7] | Median percentage change in the threshold voltage [1, 8] | Median percentage change in the threshold voltage [1, 9] | Median percentage change in the threshold voltage [1, 10] | Median percentage change in the threshold voltage [1, 11] | Median percentage change in the threshold voltage [1, 12] | Median percentage change in the threshold voltage [1, 13] | analgetic effect (in words) ([1]; oral) | change in the threshold voltage (in words) ([1]; oral) | increase of the threshold voltage ([1]; oral) | time to achieve the increase of threshold voltage ([1]; oral) [min] | further results |
| --- | --- | --- | --- | --- | --- | --- | --- | --- | --- | --- | --- | --- | --- |
| CC(C)Cc1ccc([C@@H](C)C(=O)O)cc1 [(R)-(-)-ibuprofen] | -5,7% | +4,0% | +4,5% | +0,5% | -4,7% | -7,0% | -2,3% | -3,4% | inactive | no significant change in the threshold voltage |  |  | conversion to the active (S)-(+)-enantiomer in vivo [2]: converted to the active (S)-(+)-enantiomer in vivo; late plasma levels as % of the maximum level ([3]; after the first 4 to 6 hours): less than 10%; plasma levels relative to those after administration of the (S)-(+)-form ([3]; only after the first 4 to 6 hours): equally high or higher levels |
| CC(=O)Oc1ccccc1C(=O)O [Acetylsalicylic acid] | +35,8% | +56,6% | +41,4% | +80,4% | +74,6% | +72,8% | +66,1% | +59,8% |  |  |  |  | increase of the threshold voltage required for a stimulus response [1, 14]: ~80%; time to achieve the level of analgesia [1, 14]: ≤ 2 h; threshold voltage increase remaining throughout the duration of the test ([1]; oral, 100 mg/kg acetylsalicylic acid, after level achieved, up to 5 h): above 60% |
| CC(C)Cc1ccc([C@H](C)C(=O)O)cc1 [(S)-(+)-ibuprofen] | +9,5% | +33,5% | +51,2% | +53,9% | +45,5% | +42,3% | +33,7% | +38,2% | notable analgesic effect which was maintained for several hours | the threshold voltage remained elevated during the rest of the test period | ~50% | 90 | amount of (S)-(+)-ibuprofen required relative to racemic ibuprofen to give a given analgetic activity ([1]; analgesia tests on monkeys): less than half as much; reduced dose requirement versus racemate shown in humans (humans [4]): could also be shown in humans |
| CC(C)Cc1ccc(C(C)C(=O)O)cc1 (racemic) [(±)-ibuprofen, 2-(4-Isobutylphenyl)-propionic acid] | +6,4% | +8,4% | +15,7% | +15,7% | +8,5% | +18,1% | +9,7% | +17,0% |  | the level remained during the rest of the test period | approximately 15% | ≤ 90 | analgetic effect (in words) ([1]; oral, listed as ibuprofen racemate, 50 mg/kg): analgetic activity was assumed; analgetic effect (in words) ([1]; oral, listed as racemate, 50 mg/kg): weak but long-lasting analgetic effect; difference between the median change between ibuprofen racemate and carrier ([1]; oral, 50 mg/kg, every time after 90 minutes with the exception of 150 minutes): more than 20%; known period of action (humans [5]; human): ca. 6 hours; side effects (humans [5]; in vivo): usual unwanted side effects of NSAR; therapeutic effect in humans (humans [5]; therapy of humans): reduces pain, swelling and fever caused by inflammation; inhibition of prostaglandin synthesis (prostaglandin synthesis): effective in inhibiting prostaglandin synthesis |
